# Molecular target: T1, Neuropeptide Y receptor type 1 (Homo sapiens, UniProt P25929)
# T1 sequence (P25929 whole entry): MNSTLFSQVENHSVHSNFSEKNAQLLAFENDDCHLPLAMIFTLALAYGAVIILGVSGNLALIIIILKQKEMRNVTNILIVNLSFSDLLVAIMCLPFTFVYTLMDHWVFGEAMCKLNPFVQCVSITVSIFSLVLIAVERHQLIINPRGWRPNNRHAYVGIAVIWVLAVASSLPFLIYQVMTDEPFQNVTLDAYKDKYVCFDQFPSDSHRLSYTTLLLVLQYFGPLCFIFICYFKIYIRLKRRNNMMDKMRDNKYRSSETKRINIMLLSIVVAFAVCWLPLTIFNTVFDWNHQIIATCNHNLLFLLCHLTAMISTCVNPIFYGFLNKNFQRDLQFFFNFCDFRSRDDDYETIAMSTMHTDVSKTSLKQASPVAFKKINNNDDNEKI
# Test: Inhibition of I-PYY binding to Nueopeptide Y1 receptor expressed in human neuroblastoma SK-N-MC cells
# Type: cell-based
row,Compound,IC50 [nM]
1,COC(=O)C1=C(C)N=C(C)/C(=C(/O)OC)N1c1cccc(NC(=O)NCCCN2CCC(c3cccc(OC)c3)CC2)c1,554
2,COC(=O)C1=C(C)N=C(C)/C(=C(/O)OC)N1c1cccc(NC(=O)NCCCN2CCN(C3CCCCC3)CC2)c1,434
3,COC(=O)C1=C(C)N=C(C)/C(=C(/O)OC)N1c1cccc(N/C(S)=N/CCCN2CCC(C(C)(C)C)CC2)c1,> 1000
4,COC(=O)C1=C(C)N=C(C)/C(=C(/O)OC)N1c1cccc(N/C(S)=N/CCCN2CCN(C3CCCCC3)CC2)c1,> 1000
5,COC(=O)C1=C(C)N=C(C)/C(=C(/O)OC)N1c1cccc(N/C(S)=N/CCCN2CCC(c3cccc(OC)c3)CC2)c1,945

# Now from value to compound:
row,IC50 [nM],Compound
1,< 1,COC(=O)C1=C(C)N=C(C)/C(=C(/O)OC)C1c1cccc(N/C(=N/CCCN2CCC(C(C)(C)C)CC2)NC#N)c1 (stereo not drawn)
2,176,COC(=O)C1=C(C)N=C(C)/C(=C(/O)OC)C1c1cccc(NC(=O)NCCCN2CCN(C3CCCCC3)CC2)c1 (stereo not drawn)
3,5.4,COC(=O)C1=C(C)N=C(C)/C(=C(/O)OC)C1c1cccc(N/C(=N/CCCN2CCC(c3ccccc3)CC2)NC#N)c1 (stereo not drawn)
4,231,COC(=O)C1=C(C)N=C(C)/C(=C(/O)OC)N1c1cccc(N/C(=N/CCCN2CCC(C(C)(C)C)CC2)NC#N)c1
5,132,COC(=O)C1=C(C)N=C(C)/C(=C(/O)OC)C1c1cccc(N/C(S)=N/CCCN2CCN(C3CCCCC3)CC2)c1 (stereo not drawn)
6,12.8,COC(=O)C1=C(C)N=C(C)/C(=C(/O)OC)C1c1cccc(N/C(S)=N/CCCN2CCC(c3cccc(OC)c3)CC2)c1 (stereo not drawn)
7,268,COC(=O)C1=C(C)N=C(C)/C(=C(/O)OC)N1c1cccc(N/C(=N/CCCN2CCC(c3ccccc3)CC2)NC#N)c1

# Molecular target: T1, Neuropeptide Y receptor type 1
# Test: Binding affinity against Neuropeptide Y receptor type 1 using I-PYY as a radioligand in human neuroblastoma SK-N-MC cells
# Type: cell-based
row,IC50 [nM],Compound
1,4.2,COC(=O)C1=C(C)N=C(C)/C(=C(/O)OC)C1c1cccc(NC(=O)NCCCN2CCC(c3cccc(OC)c3)CC2)c1 (stereo not drawn)
